Where a name gives a salt, the structure may show the parent alone. Read-outs that look alike come from different tables or passages of the source.
Assays:
[1] = tested on: middle-aged (14-15 months old) C57B16 mouse; assay: contextual serial discrimination test (model of episodic memory); assay type: in vivo; settings: chronic treatment for 9 days; for power of contextual memory (correct responses−interfering responses): carrier −28%
Text: The effects of 4-{3-[cis-hexahydrocyclopenta[c]pyrrol-2(1H)-yl]propoxy}benzamide and donepezil (both in the form of a hydrochloride), administered on their own or in combination, were studied using a contextual serial discrimination test in the middle-aged (14-15 months old) C57B16 mouse (n=12 per group) (Célérier et al., Learn Mem., 2004, 11(2), 196-204; Tronche et al., Behav. Brain Res., 2010, 215(2): 255-60). […] This model is relevant for evaluating the effects of products in Alzheimer's disease because patients suffering from that form of dementia also have disturbances of contextual episodic memory, this being the case from a very early stage (Gold and Budson, Expert Rev Neurother., 2008, 8(12): 1879-1891).
The mice, placed in a box with raised edges, learn two types of consecutive spatial discrimination (D1: white floor, then D2: black floor) on a floor with four holes, in which just one of the holes is baited, the arrangement being opposite in D1 and in D2 (see FIG. 1). Each discrimination is performed on a specific floor (black or white), which constitutes the internal context specific to each discrimination. 24 hours after the learning step, the mice are returned to the white contextual floor, and the following are measured: • the percentage of correct responses (i.e. % of lowering the head into the hole that was baited during the learning exercise on the white floor), • the percentage of interfering responses (i.e. % of lowering the head into the hole that was baited during the learning exercise on the black floor, the last context presented to the mice), • and the percentage of errors (i.e. % of lowering the head into the two holes that were not baited during learning, whether on the white floor or on the black floor (see FIG. 1).
The effects of 4-{3-[cis-hexahydrocyclopenta[c]pyrrol-2(1H)-yl]propoxy}benzamide and rivastigmine (used in the form of a hydrogen tartrate), administered on their own or in combination, were studied using the contextual serial discrimination test in the middle-aged C57B16 mouse described in the Example above.
The effects of 4-{3-[cis-hexahydrocyclopenta[c]pyrrol-2(1H)-yl]propoxy}benzamide and galantamine (used in the form of a hydrobromide), administered on their own or in combination, were also studied using the contextual serial discrimination test in the middle-aged C57B16 mouse.

C57B16 mouse = settings: administered on its own
Method: The effects, in terms of safety, of 4-{3-[cis-hexahydrocyclopenta[c]pyrrol-2(1H)-yl]propoxy}-benzamide and donepezil (both in the form of a hydrochloride), administered on their own or in association, were studied using Irwin's primary observation test in the C57B16 mouse (n=4 individuals per group).
Behavioural changes, physiological and neurotoxic symptoms, rectal temperature and pupil diameter were recorded using a standardised observation grid derived from that of Irwin.

**Q.** How did the “increase in the level of correct responses compared to the carrier” value ([1]; Example A, FIG. 2, 0.3 mg/kg of base per os) turn out when NC(=O)c1ccc(OCCCN2C[C@H]3CCC[C@H]3C2)cc1 [4-{3-[cis-hexahydrocyclopenta[c]pyrrol-2(1H)-yl]propoxy}benzamide] was run?
**A.** Its value is “more than 60%”.

**Q.** What about the “increase in the level of correct responses compared to the carrier” value ([1]; Example A, FIG. 2, 1 mg/kg of base per os) of the same compound?
**A.** Its value is “more than 60%”.

**Q.** And the “power of contextual memory (correct responses−interfering responses)” value (“power of contextual memory” below) ([1]; Example B, FIG. 4, 0.3 mg/kg of base per os)?
**A.** Its value is “+6%”.

**Q.** What about the “power of contextual memory” value ([1]; Example B, FIG. 4, 1 mg/kg of base per os) of the same compound?
**A.** Its value is “+10%”.

**Q.** What about the “power of contextual memory” value ([1]; Example C, FIG. 5, 0.3 mg/kg of base per os) of the same compound?
**A.** Its value is −3%.

**Q.** What about the “power of contextual memory” value ([1]; Example C, FIG. 5, 1 mg/kg of base per os) of the same compound?
**A.** Its value is “+9%”.

**Q.** And the “observable changes in Irwin's test” value (C57B16 mouse; 0.3 and 1 mg/kg of base per os)?
**A.** The value was “no observable changes”.

**Q.** COc1cc2c(cc1OC)C(=O)C(CC1CCN(Cc3ccccc3)CC1)C2 (stereo not drawn) [donepezil hydrochloride, donepezil] was tested. Which “percentage of correct responses compared to the carrier” value ([1]; Example A, FIG. 2, donepezil hydrochloride 0.1 mg/kg of base per os, tested 24 hours after learning) did it give?
**A.** Its value is “no significant improvement”.

**Q.** And the “observable changes in Irwin's test” value (C57B16 mouse; donepezil 1 mg/kg of base per os (strongest dose))?
**A.** Its value is “reduces reactivity to touch and causes slight sedation”.

**Q.** And the “observable changes in Irwin's test” value (C57B16 mouse; donepezil 0.1 and 0.3 mg/kg of base per os)?
**A.** Its value is “no observable changes”.

**Q.** With COc1ccc2c3c1O[C@H]1C[C@@H](O)C=C[C@@]31CCN(C)C2 [galantamine, reference compound] as the compound, how does the “power of contextual memory” value ([1]; Example C, FIG. 5, galantamine 0.3 mg/kg of base per os) read?
**A.** The value was −18%.

**Q.** How did the “power of contextual memory” value ([1]; Example B, FIG. 4, rivastigmine 0.1 mg/kg of base per os) turn out when CCN(C)C(=O)Oc1cccc([C@H](C)N(C)C)c1 [rivastigmine, reference compound] was run?
**A.** The value was −9%.

— US8940785B2, “Association between 4-{3-[cis-hexahydrocyclopenta[c]pyrrol-2(1H)-yl]propoxy}benzamide and an acetylcholinesterase inhibitor, and pharmaceutical compositions containing it” (priority 2011, dated 2015)
